# Experimental data as given in patent US12037333B2, “Pyridopyrazine and pyridotriazine inhibitors of influenza virus replication” (priority 2018, dated 2024).
# Test system: Influenza type B (cell culture adapted strain B/Lee/40, ATCC VR-1535)
# Experiment: Influenza antiviral assay: inhibition of virus-induced cytopathic effects (CPE) in MDCK cells, XTT dye reduction
# Type: cell-based
# Conditions: Influenza B virus, MDCK, 96 h, strain B/Lee/40, MDCK cells, CPE inhibition at 4 days
row,SMILES,EC50 [nM]
1,O=C1c2c(O)c(=O)ccn2N(C23c4cccc(F)c4CC2Cc2c(F)cccc23)CN1CC(F)F (stereo not shown) [Compound A71],< 125
2,O=C1c2c(O)c(=O)ccn2N(C23c4cccc(F)c4CC2Cc2c(F)cccc23)CN1CCCF (stereo not shown) [Compound A72],< 125
3,CC1N(C)C(=O)c2c(O)c(=O)ccn2N1C12c3cccc(F)c3CC1Cc1c(F)cccc12 (stereo not shown) [Compound A73],< 125
4,O=C1c2c(O)c(=O)ccn2N(C23c4ccccc4CC2Cc2c3ccc(F)c2F)CN1CCF (stereo not shown) [Compound A74],< 125
5,O=C1c2c(O)c(=O)ccn2N(C23c4ccccc4CC2Cc2c(F)cccc23)CN1CC1CCOCC1 (stereo not shown) [Compound A75],< 125
6,O=C1c2c(O)c(=O)ccn2N(C23c4cccc(F)c4CC2Cc2c(F)cccc23)CN1CC1CC1 (stereo not shown) [Compound A76],< 125
7,CCN1CN(C23c4ccccc4CC2Cc2c3ccc(F)c2C)n2ccc(=O)c(O)c2C1=O (stereo not shown) [Compound A77],125 to 250
8,Cc1c(F)ccc2c1CC1Cc3ccccc3C21N1CN(C)C(=O)c2c(O)c(=O)ccn21 (stereo not shown) [Compound A78],< 125
9,O=C1c2c(O)c(=O)ccn2N(C23c4ccccc4CC2Cc2c(F)cccc23)CN1CCCF (stereo not shown) [Compound A79],< 125
10,O=C1c2c(O)c(=O)ccn2N(C23c4ccccc4CC2Cc2c3ccc(F)c2F)CN1CCCF (stereo not shown) [Compound A80],< 125
11,O=C1c2c(O)c(=O)ccn2N(C23c4cccc(F)c4CC2Cc2c(F)cccc23)CN1CC1CCOCC1 (stereo not shown) [Compound A81],125 to 250
12,CCN1CN(C23c4ccccc4CC2Cc2c(C)cccc23)n2ccc(=O)c(O)c2C1=O (stereo not shown) [Compound A82],125 to 250
13,O=C1c2c(O)c(=O)ccn2N(C23c4ccccc4CC2Cc2c(F)cccc23)CN1CC(F)F (stereo not shown) [Compound A83],< 125
14,O=C1c2c(O)c(=O)ccn2N(C23c4ccccc4CC2Cc2c3ccc(F)c2F)CN1CC(F)F (stereo not shown) [Compound A84],125 to 250
15,Cc1ccc2c(c1F)CC1Cc3ccccc3C21N1CN(C)C(=O)c2c(O)c(=O)ccn21 (stereo not shown) [Compound A85],250 to 375
16,O=C1c2c(O)c(=O)ccn2N(C23c4cccc(F)c4CC2Cc2c(F)cccc23)CN1CCc1ccccc1 (stereo not shown) [Compound A86],< 125
17,O=C1c2c(O)c(=O)ccn2N(C23c4ccccc4CC2Cc2c(F)cccc23)CN1CCc1ccccc1 (stereo not shown) [Compound A87],< 125
18,CC(C)N1CN(C23c4cccc(F)c4CC2(C)Cc2c(F)cccc23)n2ccc(=O)c(O)c2C1=O (stereo not shown) [Compound A89],375 to 500
19,CC(CCN1CN(C23c4ccccc4CC2Cc2c3ccc(F)c2F)n2ccc(=O)c(O)c2C1=O)c1ccccc1 (stereo not shown) [Compound A91],125 to 250
20,"O=C1c2c(O)c(=O)ccn2N(C23c4ccccc4CC2Cc2c3ccc(F)c2F)CN1C1CCC1 (stereo not shown) [Compound A92, 3-Cyclobutyl-1-(1,2-difluoro-9a,10-dihydroindeno[1,2-a]inden-4b(9H)-yl)-5-hydroxy-2,3-dihydro-1H-pyrido[2,1-f][1,2,4]triazine-4,6-dione]",250 to 375
21,O=C1c2c(O)c(=O)ccn2N(C23c4ccccc4CC2Cc2c(Cl)cccc23)CN1C1CC1 (stereo not shown) [Compound A93],125 to 250
22,CC1N(C)C(=O)c2c(O)c(=O)ccn2N1C12c3ccccc3CC1Cc1c(Cl)cccc12 (stereo not shown) [Compound A94],250 to 375
23,CCN1C(=O)c2c(O)c(=O)ccn2N(C23c4ccccc4CC2Cc2c(Cl)cccc23)C1C (stereo not shown) [Compound A95],< 125
24,CN1CN(C23c4cc(F)ccc4CC2Cc2c(Cl)cccc23)n2ccc(=O)c(O)c2C1=O (stereo not shown) [Compound A96],< 125

row,SMILES,EC50 [nM]
1,CCN1CN(C23c4ccccc4CC2Cc2c3ccc(C)c2F)n2ccc(=O)c(O)c2C1=O (stereo not shown) [Compound A98],< 125
2,O=C1c2c(O)c(=O)ccn2N(C23c4ccccc4CC2Cc2c3ccc(F)c2F)CN1CC1CCCCC1 (stereo not shown) [Compound A99],250 to 375
3,O=C1c2c(O)c(=O)ccn2N(C23c4ccccc4CC2Cc2c3ccc(F)c2F)CN1CC1CCCC1 (stereo not shown) [Compound A100],250 to 375
4,COCCN1CN(C23c4ccccc4CC2Cc2c(Cl)cccc23)n2ccc(=O)c(O)c2C1=O (stereo not shown) [Compound A101],< 125
5,O=C1c2c(O)c(=O)ccn2N(C23c4ccccc4CC2Cc2c(Cl)cccc23)CN1CCCF (stereo not shown) [Compound A102],< 125
6,O=C1c2c(O)c(=O)ccn2N(C23c4ccccc4CC2Cc2c(Cl)cccc23)CN1C1CCC1 (stereo not shown) [Compound A103],125 to 250
7,O=C1c2c(O)c(=O)ccn2N(C23c4ccccc4CC2Cc2c(Cl)cccc23)CN1CC1CCCC1 (stereo not shown) [Compound A104],125 to 250
8,O=C1c2c(O)c(=O)ccn2N(C23c4ccccc4CC2Cc2c(Cl)cccc23)CN1CC(F)F (stereo not shown) [Compound A105],< 125
9,"CN1C(=O)c2c(O)c(=O)ccn2N(C23C(=Cc4c(F)cccc42)Cc2c(F)cccc23)C1CN (stereo not shown) [Compound A106, 2-(aminomethyl)-1-(1,8-difluoroindeno[1,2-a]inden-4b(9H)-yl)-5-hydroxy-3-methyl-2,3-dihydro-1H-pyrido[2,1-f][1,2,4]triazine-4,6-dione]",< 125
10,"CN1C(=O)c2c(O)c(=O)ccn2N(C23c4cccc(F)c4CC2Cc2c(F)cccc23)C1CN (stereo not shown) [Compound A107, 2-(aminomethyl)-1-(1,8-difluoro-9a,10-dihydroindeno[1,2-a]inden-4b(9H)-yl)-5-hydroxy-3-methyl-2,3-dihydro-1H-pyrido[2,1-f][1,2,4]triazine-4,6-dione]",125 to 250
11,O=C1c2c(O)c(=O)ccn2N(C23c4ccccc4CC2Cc2c(Cl)cccc23)CN1CC1CC1 (stereo not shown) [Compound A108],250 to 375
12,COCCN1CN(C23c4ccccc4CC2Cc2ccccc23)n2ccc(=O)c(O)c2C1=O (stereo not shown) [Compound A110],< 125
13,O=C1c2c(O)c(=O)ccn2N(C23c4ccccc4CC2Cc2c(Cl)cccc23)CN1CCF (stereo not shown) [Compound A111],125 to 250
14,O=C1c2c(O)c(=O)ccn2N(C23c4ccccc4CC2Cc2c(Cl)cccc23)CN1CC1CCC1 (stereo not shown) [Compound A112],250 to 375
15,COCCN1C(=O)c2c(O)c(=O)ccn2N(C23c4ccccc4CC2Cc2c3ccc(F)c2F)C1C (stereo not shown) [Compound A113],125 to 250
16,CC1N(CCF)C(=O)c2c(O)c(=O)ccn2N1C12c3ccccc3CC1Cc1c(Cl)cccc12 (stereo not shown) [Compound A115],250 to 375
17,CCN1CN(C23c4ccccc4CC2(C)Cc2cc(F)ccc23)n2ccc(=O)c(O)c2C1=O (stereo not shown) [Compound A116],< 125
18,CC(C)CN1C(=O)c2c(O)c(=O)ccn2N(C23c4ccccc4CC2Cc2c(F)cccc23)C1C (stereo not shown) [Compound A117],250 to 375
19,CC(C)CN1C(=O)c2c(O)c(=O)ccn2N(C23c4ccccc4CC2Cc2c(Cl)cccc23)C1C (stereo not shown) [Compound A118],250 to 375
20,CC1N(CCF)C(=O)c2c(O)c(=O)ccn2N1C12c3ccccc3CC1Cc1c(F)cccc12 (stereo not shown) [Compound A121],125 to 250
21,COCCN1C(=O)c2c(O)c(=O)ccn2N(C23c4ccccc4CC2Cc2c(F)cccc23)C1C (stereo not shown) [Compound A124],375 to 500
22,COCCN1C(=O)c2c(O)c(=O)ccn2N(C23c4ccccc4CC2Cc2c(Cl)cccc23)C1C (stereo not shown) [Compound A125],125 to 250
23,CN1CN(C23c4ccccc4CC2(C)Cc2cc(F)ccc23)n2ccc(=O)c(O)c2C1=O (stereo not shown) [Compound A126],< 125

# Same assay, conditions: strain B/Lee/40, MDCK cells, CPE inhibition at 4 days
row,SMILES,EC50 [nM]
1,CN1CN(C23c4ccccc4CC2Cc2c3ccc(F)c2Cl)n2ccc(=O)c(O)c2C1=O (stereo not shown) [Compound A90],< 125
2,O=C1c2c(O)c(=O)ccn2N(C23c4ccccc4CC2Cc2c(Cl)cccc23)CN1CCF (stereo not shown) [Compound A114],125 to 250
